Reference: article PMC10377034, “Syntheses of 25-Adamantyl-25-alkyl-2-methylidene-1α,25-dihydroxyvitamin D3 Derivatives with Structure–Function Studies of Antagonistic and Agonistic Active Vitamin D Analogs” (Biomolecules, 2023)
Like-named read-outs stand apart in the source and are kept apart here.

How the values were obtained:
[1] = test system: VDR; conditions: literature values, cited from earlier work; for EC50: read-out: Transcriptional Activity EC50
[2] = test system: human dedifferentiated fat (DFAT) cells; assay: Osteogenic differentiation assay: ALP activity in human DFAT cells; format: cell-based; conditions: osteogenic medium, 100 nM, 7 days, natural hormone 1 = 100%
Method: Mature adipocytes from the adipose tissue of mammals such as humans and rodents can be dedifferentiated into pluripotent cells using ceiling culture. Dedifferentiated fat (DFAT) cells have potential applications in both regenerative medicine and injury healing, as well as mesenchymal stem cells, embryonic stem cells, and induced pluripotent stem cells. The osteogenic activity of vitamin D derivatives was assessed based on alkaline phosphatase (ALP) activity.
Samples of human subcutaneous adipose tissue were obtained from patients who underwent surgery in the Department of Pediatric Surgery at Nihon University Itabashi Hospital (Tokyo, Japan). The patients gave their written informed consent, and the Ethics Committee of Nihon University School of Medicine approved this study. We prepared dedifferentiated fat (DFAT) cells using the ceiling culture method, as described previously. Briefly, the adipose tissue (approximately 1 g) was cut into small pieces and digested with a 0.1% type I collagenase solution (Koken Co., Ltd., Tokyo, Japan). […] The cells that adhered to the upper surface of the flasks were cultured for conversion to dedifferentiated fat cells. […] Cells at passages 2–4 were used for differentiation experiments.
Cells were grown to confluency in 24-well plates and incubated for a week in DMEM containing 10% FBS, 100 nM dexamethasone (Merk), 10 mM β-glycerophosphate (Merk), and […] L-ascorbic acid-2-phosphate (Merk), with 100 nM of each compound. The induction medium was replaced on day 4. The alkaline phosphatase (ALP) activity in the cell lysates was determined on day 7 with a lab assay ALP kit (Fujifilm wako). The total protein content was determined with the BCA protein assay kit (Thermo Fisher Scientific). ALP levels were normalized to the total protein content.

[3] = test system: CYP24A1 expression in HaCaT cells; parameters: method as in PMID 17325131, PMID 24773565; conditions: cited from earlier work
[4] = test system: VDR; conditions: cited from earlier work; for IC50: literature values, read-out: VDR Affinity IC50
[5] = target: T1, VDR with RXRα (Homo sapiens, UniProt P11473); assay: Mammalian two-hybrid assay, interaction of the VDR with RXRα
T1 sequence (P11473 1-427): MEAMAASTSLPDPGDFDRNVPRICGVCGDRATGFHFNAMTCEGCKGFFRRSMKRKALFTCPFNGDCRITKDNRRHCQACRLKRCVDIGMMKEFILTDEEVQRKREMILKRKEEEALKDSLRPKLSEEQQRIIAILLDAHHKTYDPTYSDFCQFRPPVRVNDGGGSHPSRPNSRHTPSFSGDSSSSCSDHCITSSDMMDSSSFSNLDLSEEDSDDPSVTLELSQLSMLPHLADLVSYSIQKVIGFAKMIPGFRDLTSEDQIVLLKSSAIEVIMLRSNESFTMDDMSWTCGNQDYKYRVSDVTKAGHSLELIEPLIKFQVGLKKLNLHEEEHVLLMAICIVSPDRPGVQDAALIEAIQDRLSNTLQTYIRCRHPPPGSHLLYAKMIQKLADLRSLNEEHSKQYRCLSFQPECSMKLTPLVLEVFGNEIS
T1 sequence (P19793 1-462 partner): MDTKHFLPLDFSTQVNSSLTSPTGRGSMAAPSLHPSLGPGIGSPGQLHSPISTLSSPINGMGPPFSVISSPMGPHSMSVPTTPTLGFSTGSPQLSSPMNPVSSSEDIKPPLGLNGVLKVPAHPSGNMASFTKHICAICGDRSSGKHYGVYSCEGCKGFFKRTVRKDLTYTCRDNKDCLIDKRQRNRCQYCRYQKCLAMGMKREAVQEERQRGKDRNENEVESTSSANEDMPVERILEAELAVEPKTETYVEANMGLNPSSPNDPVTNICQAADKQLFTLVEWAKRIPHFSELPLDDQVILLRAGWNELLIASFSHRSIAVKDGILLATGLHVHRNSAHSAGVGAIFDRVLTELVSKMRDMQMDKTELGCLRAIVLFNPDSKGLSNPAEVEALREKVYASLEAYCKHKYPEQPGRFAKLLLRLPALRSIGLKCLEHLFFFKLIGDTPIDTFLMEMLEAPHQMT

[6] = target: T2, recombinant hVDR-LBD (Homo sapiens, UniProt P11473); assay: biochemical
T2 sequence (P11473 140-427): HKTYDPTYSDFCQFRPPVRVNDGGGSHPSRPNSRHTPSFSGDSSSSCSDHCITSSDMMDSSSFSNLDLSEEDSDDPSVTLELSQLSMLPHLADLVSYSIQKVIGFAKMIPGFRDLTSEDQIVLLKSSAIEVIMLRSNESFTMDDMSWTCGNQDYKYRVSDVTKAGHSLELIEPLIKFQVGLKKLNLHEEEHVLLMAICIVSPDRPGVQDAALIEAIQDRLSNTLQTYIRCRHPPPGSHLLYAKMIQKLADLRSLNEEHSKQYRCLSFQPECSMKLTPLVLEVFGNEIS

[7] = target: T3, VDR with SRC-1 (Homo sapiens, UniProt P11473); assay: Mammalian two-hybrid assay, VDR binding to SRC-1
T3 sequence (P11473 1-427): T1 sequence (P11473 1-427)
T3 sequence (Q15788 595-771 partner limits assumed): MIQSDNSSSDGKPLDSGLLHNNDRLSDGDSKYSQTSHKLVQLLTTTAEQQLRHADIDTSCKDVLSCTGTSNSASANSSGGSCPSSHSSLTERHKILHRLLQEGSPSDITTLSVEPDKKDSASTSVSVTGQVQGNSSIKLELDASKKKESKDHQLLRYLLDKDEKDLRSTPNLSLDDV

[8] = target: T4, VDR with NCoR (Homo sapiens, UniProt P11473); assay: Mammalian two-hybrid assay, dissociation of NCoR from the VDR
T4 sequence (P11473 1-427): T1 sequence (P11473 1-427)

[9] = target: T5, hVDR (Homo sapiens, UniProt P11473); assay: VDR transactivation luciferase reporter assay in HEK293 cells (SPP×3-tk-LUC); format: cell-based; conditions: for Transcriptional activity efficacy: 1,25(OH)2D3 = 100%; for Emax: read-out: Transcriptional Activity % Efficacy of That of 1 (converted)
T5 construct: expressed in transfected cells; host or cells: HEK293
T5 sequence (P11473 1-427): T1 sequence (P11473 1-427)
Method: The transcriptional activity of the 25-alkylvitamin D analogs on the VDR was evaluated via a luciferase reporter assay in HEK293 human kidney cells transfected with an hVDR expression vector and a luciferase reporter with mouse osteopontin vitamin D response elements (VDREs, SPP×3-tk-LUC).
Transfections of 50 ng of TK-Spp × 3-LUC reporter plasmid, 10 ng of pCMX-β-galactosidase, and 15 ng of pCMX-VDR for each well of a 96-well plate were performed in HEK293 cells using the calcium phosphate coprecipitation method, as described previously. The mammalian two-hybrid assay for cofactor interaction with VDR used 50 ng of TK-MH100(UAS) × 3- LUC reporter plasmid, 10 ng of pCMX-β-galactosidase, 15 ng of pCMX-GAL4-RXRα, pCMX-GAL4-SRC1, or pCMX-GAL4-NCoR, and 15 ng of pCMX-VP16-VDR for each well of a 96-well plate. Luciferase and β-galactosidase activities were measured with a luminometer and a microplate reader (Molecular Devices, Sun Jose, CA, USA), respectively. Luciferase values were normalized to the internal β-galactosidase control.
HEK293 cells were co-transfected with TK-Spp × 3-LUC reporter plasmid and pCMX−VDR, and 8 h after transfection the cells were treated with several concentrations of each compound. After 24 h, the cells were harvested for assaying luciferase and β-galactosidase activity using a luminometer (Molecular Devices, Sunnyvale, CA, USA).

[10] = test system: CYP24A1 expression in all cells (HEK293, SW480, U937, HaCaT, MG63, H292); assay: CYP24A1 expression (RT-qPCR), all cells tested; conditions: 100 nM, 24 h
[11] = target: T2, recombinant hVDR-LBD; conditions: for fold lower activity of rapidly eluting epimer than the other 25-epimer: affinity for human VDR, within each 25-epimer pair; for VDR affinity, % of that of 1,25(OH)2D3: relative to 1,25(OH)2D3
[12] = test system: VDR; assay: VDR affinity, previously reported; format: binding
[13] = test system: HL-60 cell; parameters: method as in PMID 6572492; conditions: cited from earlier work
[14] = test system: VDR; conditions: antagonist activity for 1; read-out: Antagonistic Activity IC50; cited from earlier work
[15] = test system: CYP24A1 expression in intestine-derived HCT116 cells; parameters: method as in PMID 17325131; conditions: cited from earlier work
[16] = parameters: method as in PMID 26613420; conditions: versus natural hormone 1; cited from earlier work
[17] = read-out: Transcriptional activity EC50
[18] = this study, read-out: Transcriptional Activity EC50

Row | EC50 [5] [nM] | IC50 [6] [nM] | EC50 [7] [nM] | IC50 [8] [nM] | Transcriptional activity efficacy [9] [%] | EC50 [9, 17] [nM] | Emax ([9]; this study) [%] | EC50 [9, 18] [nM] | fold lower activity of rapidly eluting epimer than the other 25-epimer [11] | VDR affinity, % of that of 1,25(OH)2D3 [11] [%] | Compound | Transcriptional Activity % Efficacy of That of 1 [1] [%] | ALP activity [2] [%] | IC50 [4] [nM] | CYP24A1 expression activity in all cells [10] | EC50 [1] [nM] | also measured
1 |  |  |  |  |  |  |  |  |  |  | C=C1[C@H](O)CC(=C/C=C2\CCC[C@]3(C)[C@@H]([C@H](C)CC#C[C@@H](O)C45CC6CC(CC(C6)C4)C5)CC[C@@H]23)C[C@H]1O [ADTK1] | 81 | 45.6 | 0.5 |  |  | CYP24A1 expression compared to 1 [3]: less than 50%; VDR affinity, % of that of 1 ([4]; relative to 1,25(OH)2D3 (1)): 90%
2 | 5.2 | 23.4 | 2.4 | 8.5 | 83 | 2.63 | 83 | 2.6 | 5–11 fold | 2 | C=C1[C@H](O)CC(=C/C=C2\CCC[C@]3(C)[C@@H]([C@H](C)CC#C[C@@](O)(CCCC)C45CC6CC(CC(C6)C4)C5)CC[C@@H]23)C[C@H]1O [ADKM5, (25R)-25-(1-Adamantyl)-1α,25-dihydroxy-2-methylidene-26-propyl-23-yne-19,27-dinorvitamin D3] |  | 19 |  | 10-50% |  | 
3 |  |  |  |  |  |  |  |  |  |  | C=C1[C@H](O)CC(=C/C=C2\CCC[C@]3(C)[C@@H]([C@H](C)CC#C[C@H](O)C45CC6CC(CC(C6)C4)C5)CC[C@@H]23)C[C@H]1O [ADTK2] | > 38 |  | 12 |  | 6.6 | times less potent than 5b (25S) ([12]; 25R versus 25S epimer, values of ref 42): 24 times
4 |  |  |  |  |  |  |  |  |  |  | C=C1/C(=C\C=C2/CCC[C@]3(C)[C@@H]([C@H](C)CCC(F)(F)C(C)(C)O)CC[C@@H]23)C[C@H](O)C[C@H]1O [24F2-1,25(OH)2D3, 24, 24-difluoro-1α, 25-dihydroxyvitamin D3] |  |  |  |  |  | activity in HL-60 cell differentiation versus natural metabolite (1) [13]: four to seven times more activity than natural metabolite (1)
5 |  |  |  |  |  |  |  |  |  |  | C[C@H](/C=C/C[C@H](O)C12CC3CC(CC(C3)C1)C2)[C@H]1CC[C@H]2/C(=C/C=C3C[C@@H](O)C[C@H](O)C3)CCC[C@]12C [AD47] | 17 |  | 5 |  | 300 | IC50 [14]: 400 nM; CYP24A1 expression compared to 1 [3]: 50%; CYP24A1 expression compared to 1 [15]: 75%
6 | 1.1 | 6.2 | 8.4 | 2.3 | 78 | 0.53 | 78 | 0.5 | 5–11 fold | 6 | C=C1[C@H](O)CC(=C/C=C2\CCC[C@]3(C)[C@@H]([C@H](C)CC#C[C@](C)(O)C45CC6CC(CC(C6)C4)C5)CC[C@@H]23)C[C@H]1O [ADKM1, (25R)-25-(1-Adamantyl)-1α,25-dihydroxy-2-methylidene-23-yne-19,27-dinorvitamin D3] |  | 41 |  | 10-50% |  | 
7 |  |  |  |  |  |  |  |  |  |  | C=C1[C@H](O)CC(=C/C=C2\CCC[C@]3(C)[C@@H]([C@H](C)/C=C/C[C@H](O)C45CC6CC(CC(C6)C4)C5)CC[C@@H]23)C[C@H]1O [ADNY93] | 17 |  | 0.1 |  | 1 | IC50 [14]: 1.2 nM; VDR affinity, times that of AD47 (2) ([12]; effect of exocyclic methylene at C-2, values of Table 1): 50 times
8 |  |  |  |  |  |  |  |  |  |  | C=C1[C@H](O)CC(=C/C=C2\CCC[C@]3(C)[C@@H](C#CC#C[C@@H](O)C45CC6CC(CC(C6)C4)C5)CC[C@@H]23)C[C@H]1O [ADYW2] | 86 |  | 5 |  | 1.5 | stability in MG63 cells [16]: more stable than natural hormone 1
9 | 1.1 | 6.7 | 10.2 | 6.3 | 90 | 2.33 | 90 | 2.3 | 5–11 fold | 6 | C=C1[C@H](O)CC(=C/C=C2\CCC[C@]3(C)[C@@H]([C@H](C)CC#C[C@@](O)(CC)C45CC6CC(CC(C6)C4)C5)CC[C@@H]23)C[C@H]1O [ADKM3, (25R)-25-(1-Adamantyl)-1a,25-dihydroxy-26-methyl-2-methylidene-23-yne-19,27-dinorvitamin D3] |  | 40.4 |  | 10-50% |  | 
